Tests used:
RAW264.7 macrophages = assay: RAW264.7 macrophage NO assay (LPS-induced NO production, Griess reagent); type: cell-based; conditions: for IC50: Mus musculus, RAW264.7, NO production, LPS 1 μg/ml, 24 hours; for effect of suppressing the production of NO: RAW264.7 macrophages, in words
Summary of the method: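 MTT (0.5 mg/ml, 4 h) viability read at 540 nm set non-cytotoxic compound concentrations for the NO test. NO suppression, read by absorbance at 540 nm, was the difference in NO between control and treated groups; values are means of three repeats.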

DIO mice [1] = assay: Organ weights and blood biochemistry of DIO mice after 28 days of administration; type: in vivo, C57BL/6 mice; conditions: 150 mg/kg
Description: Five-week-old female C57BL/6 mice (Narabio Co., Ltd.) were purchased and fed with only high-fat diet for at least 10 weeks to produce diet induced obesity ([…]) mice. Samples were exactly taken from Preparation Example 1 (glabridin) and the compounds of Examples of the present invention (Compounds 1 to 5, 7, 9, 11, 14 to 16, 21, and 23) according to the administration dose and put into Falcon tubes, 3 ml of a 0.5% methyl cellulose aqueous solution was added thereto and a vortex mixer was used to primarily mix the ingredients in a soft manner, and then a homogenizer (30,000 rpm, Ultra-Turrax® T10 Basic, IKA) was used to treat the sample for 3 minutes while 1.5 ml of a 0.5% methyl cellulose aqueous solution was added thereto. The sample thus prepared was administered through oral gavage using a disposable plastic syringe once daily for 28 days (4 weeks). The body weight was measured twice a week while the DIO mice were bred in this manner. Based on the data thus calculated, the anti-obesity effect (%) was calculated according to the equation defined as follows. Anti-Obesity Effect={(Body weight of control group)−(Body weight of experimental group)}/(Body weight of control group)×100
After the experiment was performed for 28 days (4 weeks) as described above, blood was simultaneously taken while the experimental animal was finally sacrificed, and each of the organs (liver, heart, kidney, pancreas, fat tissues and the like) was removed to measure the weight and observe peculiar matters.
In Table 3, { }, ( ) and the like were used in order to differentiate experiments which had been performed at different periods. Experiments without the parenthesis were those simultaneously performed under the same conditions.

PTP1B = PTP1B (Homo sapiens (Human), UniProt P18031); assay: Experiment of PTP1B inhibition (p-NPP dephosphorylation); type: biochemical; conditions: 2 mM p-NPP substrate, 30° C., 30 minutes
Summary of the method: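 PTP1B reacted with 2 mM p-NPP in 50 mM citrate pH 6.0, 0.1 M NaCl, 1 mM EDTA, 1 mM DTT plus compound at various concentrations, 30 °C for 30 min. Reaction stopped with 1 N NaOH; p-nitrophenol absorbance gives IC50.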

DIO mice [2] = assay: Anti-obesity effect for DIO mice (body weight); type: in vivo, C57BL/6 mice; conditions: Mus musculus, 672 h; 4 weeks, 150 mg/kg, oral gavage once daily
Summary of the method: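 Female C57BL/6 mice made obese by ≥10 weeks of high-fat diet; compounds suspended in 0.5% methyl cellulose and given by oral gavage once daily for 28 days. Body weight measured twice weekly; effect (%) = (control weight − treated weight)/control weight × 100.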

[3] = Chemical stability in 1% HCl in MeOH (HPLC); type: physicochemical; conditions: for stability in words: until 3 days (72 hours)
Description: (§1) The relative chemical stability of glabridin of Preparation Example 1, Example 3 (Compound 4), Example 4 (Compound 5) and Example 14 (Compound 15) were compared with each other. That is, 50 mg of each of glabridin, Compound 4, Compound 5, and Compound 15 was exactly weighed, dissolved in 50 ml of 1% HCl in MeOH and 10 ml of 1% NaOH in MeOH, and the concentrations of the compounds were examined by HPLC at each time level of 0, 8 hrs, 12 hrs, 24 hrs, 48 hrs, and 72 hrs. At this time, the concentrations of the compounds remaining in 1% HCl in MeOH and 1% NaOH in MeOH were determined using an internal standard (Compound 14 of Example 13). That is, 10 mg of Compound 14 was exactly weighed and dissolved in 100 ml of acetonitrile, 9 ml of this solution was mixed with 1 ml of the sample aliquoted at each time level, the mixture was analyzed by HPLC, and the concentrations of the compounds in the internal standard and in the above samples were determined by comparing the initial values.
(§2) The concentrations of the compounds remaining in 1% HCl in MeOH and 1% NaOH in MeOH at each time level are in the following Table 8 and FIG. 7 and the following Table 9 and FIG. 8, respectively.
(§3) The numerical values exceeding 100% in the following Tables 8 and 9 show those measured at a concentration is slightly higher than the initial measurement value, and this is due to the fact that an average value of the measured values was simply shown without considering a statistical error generated during the measurement. Since the measured value of about 95% or more is deemed to have practically no change in concentration, it may be seen that the compounds of the present invention are excellent in chemical stability.

[4] = Chemical stability in 1% NaOH in MeOH (HPLC); type: physicochemical; conditions: for stability in words: until 3 days (72 hours)
Description: as §1, §2, §3

Chain of PTP1B (P18031 whole entry, species assumed): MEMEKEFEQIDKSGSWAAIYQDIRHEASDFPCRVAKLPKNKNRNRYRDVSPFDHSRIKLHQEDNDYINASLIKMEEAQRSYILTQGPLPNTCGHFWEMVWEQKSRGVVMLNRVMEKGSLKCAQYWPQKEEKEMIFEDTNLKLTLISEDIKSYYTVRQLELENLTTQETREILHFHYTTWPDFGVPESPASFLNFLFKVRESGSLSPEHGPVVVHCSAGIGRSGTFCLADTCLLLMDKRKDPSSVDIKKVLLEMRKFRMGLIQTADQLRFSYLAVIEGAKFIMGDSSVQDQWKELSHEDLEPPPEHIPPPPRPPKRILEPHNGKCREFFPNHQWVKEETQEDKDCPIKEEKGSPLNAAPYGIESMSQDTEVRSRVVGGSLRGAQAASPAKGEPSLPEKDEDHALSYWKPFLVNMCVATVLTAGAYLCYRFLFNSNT

IC50 (RAW264.7 macrophages) [µM] | IC50 (PTP1B) [µM] | concentration of compound remaining [3]; 0 [%] | concentration of compound remaining ([3]; 8 h) [%] | concentration of compound remaining ([3]; 24 h) [%] | concentration of compound remaining ([3]; 48 h) [%] | concentration of compound remaining ([3]; 72 h) [%] | stability in words [3] | concentration of compound remaining [4]; 0 [%] | concentration of compound remaining ([4]; 8 h) [%] | concentration of compound remaining ([4]; 24 h) [%] | concentration of compound remaining ([4]; 48 h) [%] | concentration of compound remaining ([4]; 72 h) [%] | stability in words [4] | Compound | effect of suppressing the production of NO (RAW264.7 macrophages) | inhibition in vivo at 150 mg/kg (DIO mice [2]) [%] | also measured
5.2 | 2.8 | 100 | 102 | 102 | 101 | 101 | very stable | 100 | 101 | 102 | 100 | 102 | very stable | CCCc1ccc(C2COc3c(ccc4c3CCC(C)(C)O4)C2)c(O)c1 (stereo not shown) [Compound 5, 3-(2-hydroxy-4-propylphenyl)-8,8-dimethyl-2,3,4,8,9,10-hexahydropyrano [2,3-f] chromene] | excellent | 19 | ALT (U/L) (DIO mice [1]; ( ) experiment): (50) U/L; AST (U/L) (DIO mice [1]; ( ) experiment): (131) U/L; BMI (DIO mice [1]; ( ) experiment): (3.0); FFA (μEq/L) (DIO mice [1]; ( ) experiment): (2310) μEq/L; Fat (g), weight of fat removed around the epididymis and the kidney (DIO mice [1]; ( ) experiment): (1.04) g; LDL (mg/dL) (DIO mice [1]; ( ) experiment): (12) mg/dL; Liver (g), weight of liver (DIO mice [1]; ( ) experiment): (1.15) g
6.8 | 8.6 | 100 | 98 | 100 | 98 | 100 | very stable | 100 | 100 | 100 | 98 | 100 | very stable | CCOc1ccc(C2COc3c(ccc4c3CCC(C)(C)O4)C2)c(O)c1 (stereo not shown) [Compound 15, 3-(2-hydroxy-4-ethoxyphenyl)-8,8-dimethyl-2,3,4,8,9,10-hexahydropyrano [2,3-f] chromene] | excellent | 14 | ALT (U/L) (DIO mice [1]; experiment without parenthesis): 52 U/L; AST (U/L) (DIO mice [1]; experiment without parenthesis): 143 U/L; BMI (DIO mice [1]; experiment without parenthesis): 3.6; FFA (μEq/L) (DIO mice [1]; experiment without parenthesis): 1760 μEq/L; Fat (g), weight of fat removed around the epididymis and the kidney (DIO mice [1]; experiment without parenthesis): 2.02 g; LDL (DIO mice [1]; experiment without parenthesis): 10 mg/dL; Liver (g), weight of liver (DIO mice [1]; experiment without parenthesis): 1.28 g

From US9783551B2, “Pyranochromenyl phenol derivative, and pharmaceutical composition for treating metabolic syndrome or inflammatory disease” (GLACEUM, INC., priority 2013, dated 2017)
